Measurements taken from article PMC7881127, “Cholesterol as a modulator of cannabinoid receptor CB2 signaling” (Scientific Reports, 2021).
“Also recorded” adds a separate entry of the source.

Assays:
CB2 receptor = tested on: CB2 receptor; parameters: method as in PMID 30639103, PMID 18931146; details: previously reported; cited from earlier work
hCB2 [1] = molecular target: T1, hCB2 (Homo sapiens, UniProt P34972); experiment: [35S]GTPγS binding assay in hCB2-CHO-K1 cell membranes; assay type: biochemical; details: for Emax: read-out: GTPγS binding Emax; for Functional effect on G-protein signaling (pharmacological category) / Reduced basal signaling: hCB2-expressing CHO cell membranes (PerkinElmer)
T1 construct: purchased PerkinElmer ES111-M400UA; host or cells: CHO-K1 cells stably transfected
Procedure: Figure 2 Affinity and functional effects of novel MRI ligands on CB2 receptor in CHO cell membranes. (a) binding affinities (nM) and Emax (% and nM) of [^35S]-GTPγS binding to CHO membranes (PerkinElmer, Cat. No ES111-M400UA) expressing hCB2. (b) [^35S]-GTPγS binding to membranes as a factor of ligand concentration. Binding of [^35S]-GTPγS was determined as described in “Methods”. Non-specific binding was defined as 0% activity. The assay of GTPγS non-specific binding contains non-radioactive GTPγS.
[^35S] GTPγS binding was assayed as described earlier[65] with slight modifications. Briefly, hCB2-CHO-K1 cell membranes (4 µg) were incubated with 0.05 nM [^35S] GTPγS, and the indicated concentrations of ligands in TEM buffer (50 mM Tris–HCl, 0.2 mM EGTA, and 9 mM MgCl2, pH 7.4) containing 100 µM GDP, 150 mM NaCl, and 0.1% (w/v) bovine serum albumin in a total volume of 1 ml for 60 min at 30 °C.

hCB2 [2] = molecular target: T1, hCB2; experiment: Radioligand ([3H]CP-55,940) displacement binding in hCB2-CHO-K1 cell membranes; details: hCB2-expressing CHO cell membranes (PerkinElmer), [3H]CP-55,940 displacement; read-out: CB2R binding hCB2R-Ki
Procedure: The assay was performed as described previously. […] Plasma membranes were from cultured CHO-K1 cells stably transfected with human CB2R (Perkin Elmer). Two microgram plasma membrane protein was used in a 1 mL reaction mixture. Ki values were derived by computerized curve fitting and using the Cheng-Prusoff equation to account for the affinity of the radioligand, using the GraphPad Prism 8 program (GraphPad Prism Software Inc.).

cannabinoid receptor CB2 = cannabinoid receptor CB2 (Homo sapiens, UniProt P34972); experiment: [35S]GTP nucleotide exchange (GEF) G protein activation assay on CB2 in cell membrane preparations; assay type: biochemical; parameters: purchased PerkinElmer; Millipore ChemiScreen; Applied Cell Sciences; Signal Screen (Sf9); E. coli BL21 (DE3) and Expi293F membranes were made in house; ES111-M400UA; A318; 6110130; host or cells: CHO, CHO-K1, Sf9, Expi293F, Expi293F GNTI-, E. coli BL21 (DE3); details: for Pharmacological category in GEF assay: ligand 2 μM
Excerpt: To better understand the reason for these discrepancies, we assessed the activation of CB2 receptor by the in vitro G protein activation assay that measures the rates of nucleotide exchange on the Gα subunit of G protein (GEF assay) as described previously[33],[34]. The assay reports the rates of formation of the complex of [^35S]-GTPγS, a homolog of GTP, with the Gα subunit of G protein. Typical assay conditions require small (nanogram) quantities of the receptor protein either in cell membranes or reconstituted into lipid bilayers. The readout of the assay is the amount of the non-hydrolysable complex of Gα with [^35S]-GTPγS which, under selected experimental conditions, is proportional to the amount of activated receptor in the assay.
Figure 3 GEF of CB2 expressed in: (a) E. coli membranes and (b) CHO membranes (Millipore EMD). 2 μg of total protein per assay. Each point represents an average of four independent measurements (n = 4). Ligands were added at a concentration of 2 μM to ensure saturation of the receptor, and G protein was added as described in “Methods”. The dotted line indicates the rates of activation of G protein in the absence of a ligand. The rates of activation with […] are set to 100%, and rates of activation in the presence of SR-144,528 to 0%.
Figure 4 GEF on CB2 expressed in different cell lines. An amount of 2 μg of membrane protein per assay was used. Each data points represents an average of four independent measurements (n = 4) with error rates indicated by the bars. 100% represents full activation in the presence of 2 μM of CP-55,940, and 0%–with 2 μM SR-144,528.
The subunits of G protein were expressed and purified as described previously. The nucleotide exchange assay was performed as previously described.

natural killer cells = tested on: natural killer cells; parameters: method as in PMID 15749836; details: cited from earlier work
microglia = tested on: microglia; parameters: method as in PMID 16343349; details: cited from earlier work
[3] = CB2 in CHO membranes (EMD Millipore)
[4] = CB2 in E. coli BL21 (DE3) membranes (untreated)

T1 sequence (P34972 whole entry): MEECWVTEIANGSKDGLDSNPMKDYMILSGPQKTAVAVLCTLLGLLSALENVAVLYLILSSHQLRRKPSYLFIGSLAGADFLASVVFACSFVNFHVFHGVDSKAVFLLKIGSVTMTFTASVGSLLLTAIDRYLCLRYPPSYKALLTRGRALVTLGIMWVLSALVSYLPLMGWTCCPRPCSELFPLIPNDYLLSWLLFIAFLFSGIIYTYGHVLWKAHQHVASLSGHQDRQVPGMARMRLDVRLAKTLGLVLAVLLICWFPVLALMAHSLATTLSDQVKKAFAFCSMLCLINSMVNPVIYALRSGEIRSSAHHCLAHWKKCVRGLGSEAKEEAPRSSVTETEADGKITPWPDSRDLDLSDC
Sequence of cannabinoid receptor CB2 (P34972 whole entry): as above

Molecule	Activity on the CB2 receptor (category) (CB2 receptor)	Emax (hCB2 [1]) [%]	EC50 (hCB2 [1]) [pM]	Functional effect on G-protein signaling (pharmacological category) (hCB2 [1])	Ki (hCB2 [2]) [pM]	Reduced basal signaling (hCB2 [1]) [%]	other results
COCCn1c(C)c(C)s/c1=N\C(=O)C1C(C)(C)C1(C)C [A-836339, 2,2,3,3-tetramethyl-cyclopropanecarboxylic acid [3-(2-methoxy-ethyl)-4,5-dimethyl-3H-thiazol-(2Z)-ylidene]-amide, reference compound]	agonist						
CCCCCCC(C)(C)c1ccc([C@@H]2C[C@H](O)CC[C@H]2CCCO)c(O)c1 [CP55,940, 2-[(1R,2R,5R)-5-Hydroxy-2-(3-hydroxypropyl)cyclohexyl]-5-(2-methyloctan-2-yl)phenol, reference compound]		275 ± 4					
CC(=O)OCCn1c(C)c(C)s/c1=N\C(=O)C1C(C)(C)C1(C)C [MRI-2594]	agonist	276 ± 4	90	full agonism	31		Pharmacological category in GEF assay (cannabinoid receptor CB2; [3]): (less-strong) agonist; Pharmacological category in GEF assay (cannabinoid receptor CB2; [4]): full agonist; also recorded: strong agonist
COc1ccc2c(c1)sc(=NC(=O)C1C(C)(C)C1(C)C)n2CCOC(C)=O [MRI-2653, 2-(6-Methoxy-2-((2,2,3,3-tetramethylcyclopropane-1-carbonyl)imino)benzo[d]thiazol-3(2H)-yl)ethyl acetate]		-46 ± 2	500 ± 90	inverse agonism	94 ± 11	55	
CC(=O)OCCn1c(=NC(=O)C2C(C)(C)C2(C)C)sc2cc(Br)ccc21 [MRI-2654, 2-(6-Bromo-2-((2,2,3,3-tetramethylcyclopropane-1-carbonyl)imino)benzo[d]thiazol-3(2H)-yl)ethyl acetate]		-23 ± 3	760 ± 40	inverse agonism; also recorded: inverse agonist	79 ± 9	55	
CC(=O)OCCn1c(=NC(=O)C2C(C)(C)C2(C)C)sc2cc(OC(F)(F)F)ccc21 [MRI-2659, 2-(2-((2,2,3,3-tetramethylcyclopropane-1-carbonyl)imino)-6-(trifluoromethoxy)benzo[d]thiazol-3(2H)-yl)ethyl acetate]		-55 ± 1	250 ± 100	inverse agonism	53 ± 10	55	Pharmacological category in GEF assay (cannabinoid receptor CB2; [3]): strong inverse agonist; Pharmacological category in GEF assay (cannabinoid receptor CB2; [4]): strong inverse agonist
CC(=O)OCCn1c(=NC(=O)C2C(C)(C)C2(C)C)sc2cc(C)ccc21 [MRI-2687, 2-(6-methyl-2-((2,2,3,3-tetramethylcyclopropane-1-carbonyl)imino)benzo[d]thiazol-3(2H)-yl)ethyl acetate]	inverse agonist	-35 ± 1	1230 ± 90	inverse agonism	100 ± 10	55	
CCCCCc1cc(O)c2c(c1)OC(C)(C)[C@@H]1CCC(C)=C[C@@H]21 [THC, Δ^9-tetrahydrocannabinol]							CB2 activity on 2-AG-induced migration of natural killer cells (natural killer cells): no CB2 agonist activity and acted as a CB2 antagonist; CB2 activity in suppressing interferon-γ-induced activation of microglia (microglia): full CB2 agonist
CC(C)CCC[C@@H](C)[C@H]1CC[C@H]2[C@@H]3CC=C4C[C@@H](O)CC[C@]4(C)[C@H]3CC[C@]12C [cholesterol]							Effect on constitutive (basal) activity of the CB2 receptor (cannabinoid receptor CB2; cell membrane preparations and liposomes): increases
methyl-β-cyclodextrin [MβCD, reference compound]							Effect on rates of activation of G protein on CB2 (cannabinoid receptor CB2; Expi293F membranes treated with 20 mM MβCD): decreased by about twofold
